These results are taken from patent publication US10196393B2, “JAK inhibitors containing a 4-membered heterocyclic amide” (THERAVANCE BIOPHARMA R&D IP, LLC, priority 2017, dated 2019).

One may read the Ki as a dissociation constant, usually derived from enzyme kinetics or from competition with a known ligand.

The target in test [1] is JAK1 (Homo sapiens (Human), UniProt P23458). Description: Biochemical JAK kinase assay (LanthaScreen), JAK1. The conditions noted are these: converted from pIC50 with Cheng-Prusoff equation. The procedure: (§1) Assay 1: Biochemical JAK Kinase Assays
JAK1, sequence (P23458 whole entry): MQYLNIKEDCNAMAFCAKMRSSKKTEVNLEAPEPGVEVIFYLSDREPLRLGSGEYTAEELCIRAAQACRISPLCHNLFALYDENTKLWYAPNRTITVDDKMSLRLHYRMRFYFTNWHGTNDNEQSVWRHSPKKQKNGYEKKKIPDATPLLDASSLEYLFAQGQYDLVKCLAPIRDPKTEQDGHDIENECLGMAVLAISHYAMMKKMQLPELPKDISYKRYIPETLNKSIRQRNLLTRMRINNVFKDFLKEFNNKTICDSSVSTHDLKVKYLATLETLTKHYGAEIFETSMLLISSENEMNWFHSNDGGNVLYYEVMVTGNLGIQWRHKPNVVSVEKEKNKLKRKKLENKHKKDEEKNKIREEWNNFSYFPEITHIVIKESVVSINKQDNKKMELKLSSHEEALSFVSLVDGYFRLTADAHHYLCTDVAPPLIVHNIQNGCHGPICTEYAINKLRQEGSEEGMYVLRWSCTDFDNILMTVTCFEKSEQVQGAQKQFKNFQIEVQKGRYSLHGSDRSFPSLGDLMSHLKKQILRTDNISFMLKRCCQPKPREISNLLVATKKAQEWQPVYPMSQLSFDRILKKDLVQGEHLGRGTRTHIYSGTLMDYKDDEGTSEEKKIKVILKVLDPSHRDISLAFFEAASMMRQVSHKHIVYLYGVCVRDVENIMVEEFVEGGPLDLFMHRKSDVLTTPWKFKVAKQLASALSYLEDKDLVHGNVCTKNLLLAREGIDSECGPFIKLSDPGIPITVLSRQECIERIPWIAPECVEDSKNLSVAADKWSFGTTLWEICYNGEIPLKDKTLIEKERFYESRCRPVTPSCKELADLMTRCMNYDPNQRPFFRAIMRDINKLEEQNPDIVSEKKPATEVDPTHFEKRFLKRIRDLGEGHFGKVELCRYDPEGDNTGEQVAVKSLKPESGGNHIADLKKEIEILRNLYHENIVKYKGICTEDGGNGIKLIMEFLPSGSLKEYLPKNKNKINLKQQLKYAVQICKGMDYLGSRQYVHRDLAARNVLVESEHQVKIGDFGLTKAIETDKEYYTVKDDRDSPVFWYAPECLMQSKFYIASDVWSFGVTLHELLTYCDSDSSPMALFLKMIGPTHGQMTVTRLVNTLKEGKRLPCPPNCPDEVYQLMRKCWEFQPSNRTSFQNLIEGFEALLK
(§2) A panel of four LanthaScreen JAK biochemical assays (JAK1, 2, 3 and Tyk2) were carried in a common kinase reaction buffer (50 mM HEPES, pH 7.5, 0.01% Brij-35, 10 mM MgCl2, and 1 mM EGTA). Recombinant GST-tagged JAK enzymes and a GFP-tagged STAT1 peptide substrate were obtained from Life Technologies.
(§3) Serially diluted compounds were pre-incubated with each of the four JAK enzymes and the substrate in white 384-well microplates (Corning) at ambient temperature for 1 h. ATP was subsequently added to initiate the kinase reactions in 10 μL total volume, with 1% DMSO. […] The plates were allowed to incubate at ambient temperature for 1 h before being read on the EnVision reader (Perkin Elmer).
(§4) For dose-response analysis, percent inhibition data were plotted vs. compound concentrations, and IC50 values were determined from a 4-parameter robust fit model with the Prism software (GraphPad Software). Results were expressed as pIC50 (negative logarithm of IC50) and subsequently converted to pKi (negative logarithm of dissociation constant, Ki) using the Cheng-Prusoff equation.

Test [2] addresses JAK2 (Homo sapiens (Human), UniProt O60674). Description: Biochemical JAK kinase assay (LanthaScreen), JAK2. The note with it: converted from pIC50 with Cheng-Prusoff equation. The procedure:
as §1, §2, §3, §4

Test [3] has as its system IL-13 induced STAT6 phosphorylation in BEAS-2B human lung epithelial cells. Kind of test: Cellular JAKI potency assay (AlphaScreen), BEAS-2B. Type of test: cell-based. The conditions noted are these: Homo sapiens, BEAS-2B cells. The procedure: Assay 2: Cellular JAKI Potency Assay
The AlphaScreen JAKI cellular potency assay was carried out by measuring interleukin-13 (IL-13, R&D Systems) induced STAT6 phosphorylation in BEAS-2B human lung epithelial cells (ATCC). The anti-STAT6 antibody (Cell Signaling Technologies) was conjugated to AlphaScreen acceptor beads (Perkin Elmer), while the anti-pSTAT6 (pTyr641) antibody (Cell Signaling Technologies) was biotinylated using EZ-Link Sulfo-NHS-Biotin (Thermo Scientific).
BEAS-2B cells were grown at 37° C. in a 5% CO2 humidified incubator in 50% DMEM/50% F-12 medium (Life Technologies) supplemented with 10% FBS (Hyclone), 100 U/mL penicillin, 100 μg/mL streptomycin (Life Technologies), and 2 mM GlutaMAX (Life Technologies). On day 1 of the assay, cells were seeded at a 7,500 cells/well density in white poly-D-lysine-coated 384-well plates (Corning) with 25 μL medium, and were allowed to adhere overnight in the incubator. On day 2 of the assay, the medium was removed and replaced with 12 μL of assay buffer (Hank's Balanced Salt Solution/HBSS, 25 mM HEPES, and 1 mg/ml bovine serum albumin/BSA) containing dose-responses of test compounds. Compounds were serially diluted in DMSO and then diluted another 1000-fold in media to bring the final DMSO concentration to 0.1%. Cells were incubated with test compounds at 37° C. for 1 h, and followed by the addition of 12 μl of pre-warmed IL-13 (80 ng/mL in assay buffer) for stimulation. After incubating at 37° C. for 30 min, the assay buffer (containing compound and IL-13) was removed, and 10 μL of cell lysis buffer (25 mM HEPES, 0.1% SDS, 1% NP-40, 5 mM MgCl2, 1.3 mM EDTA, 1 mM EGTA, and supplement with Complete Ultra mini protease inhibitors and PhosSTOP from Roche Diagnostics). The plates were shaken at ambient temperature for 30 min before the addition of detection reagents. A mixture of biotin-anti-pSTAT6 and anti-STAT6 conjugated acceptor beads was added first and incubated at ambient temperature for 2 h, followed by the addition of streptavidin conjugated donor beads (Perkin Elmer). After a minimum of 2 h incubation, the assay plates were read on the EnVision plate reader. AlphaScreen luminescence signals were recorded and utilized to calculate the percent inhibition values based on DMSO and background controls.
For dose-response analysis, percent inhibition data were plotted vs. compound concentrations, and IC50 values were determined from a 4-parameter robust fit model with the Prism software. Results may also be expressed as the negative logarithm of the IC50 value, pIC50.
Test compounds having a lower IC50 value or higher pIC50 value in this assay show greater inhibition of IL-13 induced STAT6 phosphorylation.

The subject of test [4] is Alternaria alternata-induced eosinophilic inflammation of the lung (BALF eosinophils). Description: Murine model of Alternaria alternata-induced eosinophilic inflammation of the lung. Type of test: in vivo. The conditions noted are these: mouse, oropharyngeal aspiration 0.03-1.0 mg/mL, BALF 48 h after challenge; maximum statistically significant inhibition. The text has this: Assay 5: Murine Model of Alternaria alternata-Induced Eosinophilic Inflammation of the Lung
Airway eosinophilia is a hallmark of human asthma. Alternaria alternata is a fungal aeroallergen that can exacerbate asthma in humans and induces eosinophilic inflammation in the lungs of mice (Havaux et al. Clin Exp Immunol. 2005 February; 139(2):179-88).
Seven- to nine-week old male C57 mice from Taconic were used in the study. On the day of study, animals were lightly anesthetized with isoflurane and administered either vehicle or test compound (0.03-1.0 mg/mL, 50 μL total volume over several breaths) via oropharyngeal aspiration. Animals were placed in lateral recumbency post dose and monitored for full recovery from anesthesia before being returned to their home cage. One hour later, animals were once again briefly anesthetized and challenged with either vehicle or alternaria extract (200 ug total extract delivered, 50 μL total volume) via oropharyngeal aspiration before being monitored for recovery from anesthesia and returned to their home cage. Forty-eight hours after alternaria administration, bronchoalveolar lavage fluid (BALF) was collected and eosinophils were counted in the BALF using the Advia 120 Hematology System (Siemens). […]

Test [5] deals with IL-2/anti-CD3 stimulated IFNγ in human PBMCs. Kind of test: Cellular JAK potency assay: inhibition of IL-2/anti-CD3 stimulated IFNγ in human PBMCs. The note with it: PBMC, 24 h stimulation, read-out: pIC50, inhibition of IL-2/anti-CD3 stimulated IFNγ (converted). The format is cell-based. The source says:
Data are expressed as pIC50 (negative decadic logarithm IC50) values.

JAK2, sequence (O60674 whole entry): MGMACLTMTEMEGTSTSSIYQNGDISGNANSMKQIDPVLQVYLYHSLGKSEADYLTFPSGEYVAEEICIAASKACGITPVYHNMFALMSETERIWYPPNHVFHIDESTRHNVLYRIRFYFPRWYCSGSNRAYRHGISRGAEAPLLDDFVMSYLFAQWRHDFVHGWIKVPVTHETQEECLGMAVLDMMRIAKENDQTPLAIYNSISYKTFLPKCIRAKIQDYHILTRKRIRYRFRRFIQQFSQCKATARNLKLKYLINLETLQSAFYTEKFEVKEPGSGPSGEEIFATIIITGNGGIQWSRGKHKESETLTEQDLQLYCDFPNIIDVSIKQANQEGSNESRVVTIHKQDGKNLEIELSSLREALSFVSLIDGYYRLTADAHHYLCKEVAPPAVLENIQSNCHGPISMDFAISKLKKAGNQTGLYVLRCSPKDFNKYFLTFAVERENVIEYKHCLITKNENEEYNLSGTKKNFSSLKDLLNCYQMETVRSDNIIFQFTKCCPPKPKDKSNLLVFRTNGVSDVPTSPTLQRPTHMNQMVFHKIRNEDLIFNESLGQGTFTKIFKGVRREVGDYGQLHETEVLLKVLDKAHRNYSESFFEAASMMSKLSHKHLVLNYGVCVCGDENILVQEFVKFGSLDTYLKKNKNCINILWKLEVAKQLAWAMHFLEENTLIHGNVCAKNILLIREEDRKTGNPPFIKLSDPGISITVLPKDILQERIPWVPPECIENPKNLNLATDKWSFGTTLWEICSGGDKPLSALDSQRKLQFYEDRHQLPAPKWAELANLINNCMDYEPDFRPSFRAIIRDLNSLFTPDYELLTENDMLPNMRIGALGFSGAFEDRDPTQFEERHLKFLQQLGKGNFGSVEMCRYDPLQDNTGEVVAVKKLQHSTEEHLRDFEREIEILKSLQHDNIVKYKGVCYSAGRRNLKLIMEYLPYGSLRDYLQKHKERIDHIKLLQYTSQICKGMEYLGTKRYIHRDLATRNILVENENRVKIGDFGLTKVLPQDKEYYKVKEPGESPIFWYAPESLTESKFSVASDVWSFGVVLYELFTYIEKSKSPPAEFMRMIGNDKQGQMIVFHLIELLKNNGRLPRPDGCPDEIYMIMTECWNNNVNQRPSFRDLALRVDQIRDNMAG

Consider `CCc1cc(O)c(F)cc1-c1ccc2c(-c3nc4c([nH]3)CN(C(C)C)[C@H](C(=O)N3CC(N(C)C)C3)C4)n[nH]c2c1` [Example 2, (S)-(3-(dimethylamino)azetidin-1-yl)(2-(6-(2-ethyl-5-fluoro-4-hydroxyphenyl)-1H-indazol-3-yl)-5-isopropyl-4,5,6,7-tetrahydro-3H-imidazo[4,5-c]pyridin-6-yl)methanone], for which the Ki was 0.04 nM in test [1] and 0.02 nM in test [2]. Also, the IC50 in test [3] is 4.1 nM; in test [5] it was ~79.4 nM. Moreover, in test [4], the “Percent Inhibition of Alternaria-induced BALF Eosinophils” value is given as 74%.
